# Results: patent publication US4961920A, “Phototherapeutic monovinyl and divinyl ether-linked dimers” (Luminis Pty, Ltd., priority 1988, dated 1990)
# Test system: Lewis lung carcinoma cells
# Assay: Photosensitization of tumors: days for Lewis lung carcinoma to regrow to palpable tumor in mice after red-light irradiation
# Assay type: in vivo
# Settings: 25-60 mg/kg, i.p. or i.v.; red light 24 h after dosing; groups of 10 C57BL mice; end point 5 out of 10 mice regrow palpable tumor
# Text: Lewis lung carcinoma cells (Dr. L. Dent, Flinders Medical Centre), are transplanted into the back of C57BL mice by subcutaneous injection of approximately 10^6 cells per mouse. […] Twenty-four hours later mice are anesthetized, the fur over the tumor shaved, and a 1 cm diameter area over the tumor is irradiated with red light as specified. Mice are palpated daily for recurrence of tumor. The end point is the number of days for 5 out of 10 mice to regrow palpable tumor.
# Light can be supplied by a gold metal vapor laser (Quentron Optica Pty. Ltd.) with wavelength 627.8 nm. This laser generates average light intensities of 400 mW coupled to a 400 um quartz fiber and can be positioned to create a 1 cm diameter spot.
# Data were recorded as "TC50 "--the first time (in days) after treatment for the tumor to regrow to a palpable stage (as shown in Table 1).
row,Substance,TC50 (first time after treatment for the tumor to regrow to a palpable stage)
1,Divinyldeuteroporphyrin Ether-linked Dimer [(1) where both R = vinyl],7 days
2,Monohydroxyethyl Monovinyl Deuteroporphyrin Ether-linked Dimer,3 days
